Source: patent US20150018546A1, “HETEROCYCLIC COMPOUND HAVING ANTI-HIV ACTIVITY” (TOYAMA CHEMICAL CO., LTD., priority 2012, published 2015)
pIC50: −log10 of the molar value.

test system: HIV-1 (JRCSF); experiment: Anti-HIV activity in MaRBLE cells infected with HIV-1 (JRCSF), luciferase readout; assay type: cell-based; settings: Human immunodeficiency virus 1, 168 h, read-out: Anti-HIV activity IC50
Experimental: This test was conducted with reference to Journal of Clinical Microbiology, 2007, Vol. 45, p. 477-487.
The anti-HIV activity was evaluated using MaRBLE cells in which a luciferase gene to be expressed under the control of HIV-1 LTR and a CCR5 gene, etc. were introduced in human T lymphocyte-derived HPB-M(a).
A fresh medium or each appropriately diluted test compound was dispensed to 96-well plates to prepare drug solution-containing plates.
The MaRBLE cells were suspended in RPMI1640 containing 10% FCS (fetal calf serum) and penicillin/streptomycin and infected with HIV-1 (JRCSF). Then, the cells were inoculated to the drug solution-containing plates (1×10^5 cells/well). The same number of uninfected cells were inoculated as a control group to the drug solution-containing plates.
After culture at 37° C. for 7 days in a 5% CO2 atmosphere, the intracellular luciferase activity was measured using Steady-Glo Luciferase assay system (Promega Corp.).
The rate of viral proliferation was determined according to the following expression:
Rate of viral proliferation(%)=(A/B)×100
A=(Firefly luciferase activity of the compound-supplemented well)−(Firefly luciferase activity of the uninfected cells)
B=(Firefly luciferase activity of the compound-free well)−(Firefly luciferase activity of the uninfected cells)
IC50 of the compound was calculated by a plot with concentration as the logarithm and the rate of viral proliferation as the real part using the FORECAST function (linear regression method) of Microsoft Office Excel 2003.

| Compound | pIC50 |
| --- | --- |
| CNc1cccc(CNc2cc(=O)n(O)c3ncnc(C)c23)c1 [Example 84, 8-hydroxy-4-methyl-5-((3-(methylamino)benzyl)amino)pyrido[2,3-d]pyrimidin-7(8H)-one] | 7.12 |

same assay, conditions: Human immunodeficiency virus 1, 168 h; MaRBLE cells (human T lymphocyte-derived HPB-M(a)) infected with HIV-1 (JRCSF); 7 days culture; rate of viral proliferation by luciferase activity; read-out: Anti-HIV activity IC50

| pIC50 | Compound |
| --- | --- |
| 6.82 | Cc1ncnc2c1c(N)cc(=O)n2O [Example 127, 5-amino-8-hydroxy-4-methylpyrido[2,3-d]pyrimidin-7(8H)-one] |
| 6.57 | Cc1ncnc2c1c(NCc1ccc(NS(C)(=O)=O)cc1)cc(=O)n2O [Example 128, N-(4-(((8-hydroxy-4-methyl-7-oxo-7,8-dihydropyrido[2,3-d]pyrimidin-5-yl)amino)methyl)phenyl)methanesulfonamide] |
| 7.04 | Cc1ncnc2c1c(NCc1cccc(N)c1)cc(=O)n2O [Example 129, 5-((3-aminobenzyl)amino)-8-hydroxy-4-methylpyrido[2,3-d]pyrimidin-7(8H)-one] |
| 6.68 | Cc1ncnc2c1c(NCc1cccc(CN)c1)cc(=O)n2O [Example 132, 5-((3-(aminomethyl)benzyl)amino)-8-hydroxy-4-methylpyrido[2,3-d]pyrimidin-7(8H)-one] |
| 7.23 | Cc1ncnc2c1c(NCc1cnccc1C(F)(F)F)cc(=O)n2O [Example 133, 8-hydroxy-4-methyl-5-(((4-(trifluoromethyl)pyridin-3-yl)methyl)amino)pyrido[2,3-d]pyrimidin-7(8H)-one] |
| 6.85 | Cc1ncnc2c1c(NCc1ccc(CN)cc1)cc(=O)n2O [Example 134] |
| 6.92 | Cc1cncc(CNc2cc(=O)n(O)c3ncnc(C)c23)c1 [Example 136, 8-hydroxy-4-methyl-5-(((5-methylpyridin-3-yl)methyl)amino)pyrido[2,3-d]pyrimidin-7(8H)-one] |
| 7.09 | Cc1cccc(CNc2cc(=O)n(O)c3ncnc(C)c23)c1 [Example 137, 8-hydroxy-4-methyl-5-((3-methylbenzyl)amino)pyrido[2,3-d]pyrimidin-7(8H)-one] |
| 7.03 | Cc1ncnc2c1c(NCc1ccccc1N1CCCCC1)cc(=O)n2O [Example 138, 8-hydroxy-4-methyl-5-((2-(piperidin-1-yl)benzyl)amino)pyrido[2,3-d]pyrimidin-7(8H)-one] |
| 6.72 | Cc1ncnc2c1c(NCc1ccccc1CN)cc(=O)n2O [Example 140, 5-((2-(aminomethyl)benzyl)amino)-8-hydroxy-4-methylpyrido[2,3-d]pyrimidin-7(8H)-one] |
| 7.34 | Cc1ncnc2c1c(NCc1cncc3ccccc13)cc(=O)n2O [Example 141, 8-hydroxy-5-(((isoquinolin-4-yl)methyl)amino)-4-methylpyrido[2,3-d]pyrimidin-7(8H)-one] |
| 6.89 | CC(=O)Nc1ccc(CNc2cc(=O)n(O)c3ncnc(C)c23)cc1 [Example 142, N-(4-(((8-hydroxy-4-methyl-7-oxo-7,8-dihydropyrido[2,3-d]pyrimidin-5-yl)amino)methyl)phenyl)acetamide] |

The remaining lines, values behind:

| Compound | pIC50 |
| --- | --- |
| Cc1ncnc2c1c(NCCc1cccnc1)cc(=O)n2O [Example 85, 8-hydroxy-4-methyl-5-((2-(pyridin-3-yl)ethyl)amino)pyrido[2,3-d]pyrimidin-7(8H)-one] | 6.51 |
| Cc1ncnc2c1c(NCCc1ccncc1)cc(=O)n2O [Example 86, 8-hydroxy-4-methyl-5-((2-(pyridin-4-yl)ethyl)amino)pyrido[2,3-d]pyrimidin-7(8H)-one] | 6.30 |
| Cc1ncnc2c1c(Nc1ccccc1)cc(=O)n2O [Example 87, 5-anilino-8-hydroxy-4-methylpyrido[2,3-d]pyrimidin-7(8H)-one] | 7.09 |
| Cc1ncnc2c1c(NCc1ccc3cc[nH]c3c1)cc(=O)n2O [Example 88, 8-hydroxy-5-(((1H-indol-6-yl)methyl)amino)-4-methylpyrido[2,3-d]pyrimidin-7(8H)-one] | 7.20 |
| Cc1ncnc2c1c(NCc1cccc3[nH]ccc13)cc(=O)n2O [Example 89, 8-hydroxy-5-(((1H-indol-4-yl)methyl)amino)-4-methylpyrido[2,3-d]pyrimidin-7(8H)-one] | 7.07 |
| Cc1ncnc2c1c(NC1CCN(C)CC1)cc(=O)n2O [Example 90, 8-hydroxy-4-methyl-5-((1-methylpiperidin-4-yl)amino)pyrido[2,3-d]pyrimidin-7(8H)-one] | 6.24 |
| Cc1ncnc2c1c(NCCc1ccccn1)cc(=O)n2O [Example 92, 8-hydroxy-4-methyl-5-((2-(pyridin-2-yl)ethyl)amino)pyrido[2,3-d]pyrimidin-7(8H)-one] | 7.51 |
| Cc1ncnc2c1c(NCc1ccc3[nH]ccc3c1)cc(=O)n2O [Example 93, 8-hydroxy-5-(((1H-indol-5-yl)methyl)amino)-4-methylpyrido[2,3-d]pyrimidin-7(8H)-one] | 7.35 |
| Cc1ncnc2c1c(NCc1ccc(-c3ccccc3)nc1)cc(=O)n2O [Example 94, 8-hydroxy-4-methyl-5-(((6-phenylpyridin-3-yl)methyl)amino)pyrido[2,3-d]pyrimidin-7(8H)-one] | 7.37 |
| Cc1ncnc2c1c(NCc1cc3ccccc3[nH]1)cc(=O)n2O [Example 95, 8-hydroxy-5-(((1H-indol-2-yl)methyl)amino)-4-methylpyrido[2,3-d]pyrimidin-7(8H)-one] | 6.96 |
| O=c1cc(NCc2ccc(-c3ccccc3)cc2)c2cncnc2n1O [Example 97, 5-(((biphenyl-4-yl)methyl)amino)-8-hydroxypyrido[2,3-d]pyrimidin-7(8H)-one] | 6.70 |
| CN(C)c1ccc(CNc2cc(=O)n(O)c3ncncc23)cc1 [Example 102, 5-((4-(dimethylamino)benzyl)amino)-8-hydroxypyrido [2,3-d]pyrimidin-7(8H)-one] | 6.68 |
| O=c1cc(NCc2ccc(O)cc2)c2cncnc2n1O [Example 103, 8-hydroxy-5-((4-hydroxybenzyl)amino)pyrido[2,3-d]pyrimidin-7(8H)-one] | 6.70 |
| O=C(NCc1ccccc1)c1c(O)c2cncnc2n(O)c1=O [Example 105, N-benzyl-5,8-dihydroxy-7-oxo-7,8-dihydropyrido[2,3-d]pyrimidine-6-carboxamide] | 7.19 |
| Cc1ncnc2c1c(NCc1cccnc1)cc(=O)n2O [Example 106, 8-hydroxy-4-methyl-5-(((pyridin-3-yl)methyl)amino)pyrido[2,3-d]pyrimidin-7(8H)-one] | 7.10 |
| O=c1cc(NCc2ccc(O)c(O)c2)c2cncnc2n1O [Example 108, 5-((3,4-dihydroxybenzyl)amino)-8-hydroxypyrido[2,3-d]pyrimidin-7(8H)-one] | 6.24 |
| Cc1ncnc2c1c(NCc1ccc(O)cc1)cc(=O)n2O [Example 110, 8-hydroxy-5-((4-hydroxybenzyl)amino)-4-methylpyrido[2,3-d]pyrimidin-7(8H)-one] | 7.31 |
| Cc1ncnc2c1c(O)c(C(=O)NCc1ccccc1)c(=O)n2O [Example 111, N-benzyl-5,8-dihydroxy-4-methyl-7-oxo-7,8-dihydropyrido[2,3-d]pyrimidine-6-carboxamide] | 8.08 |
| Cc1ncnc2c1c(NCc1ccccc1O)cc(=O)n2O [Example 112, 8-hydroxy-5-((2-hydroxybenzyl)amino)-4-methylpyrido[2,3-d]pyrimidin-7(8H)-one] | 7.55 |
| Cc1ncnc2c1c(NCc1ccc(O)c(O)c1)cc(=O)n2O [Example 113, 5-((3,4-dihydroxybenzyl)amino)-8-hydroxy-4-methylpyrido[2,3-d]pyrimidin-7(8H)-one] | 7.14 |
| Cc1ncnc2c1c(NCc1cccc(O)c1)cc(=O)n2O [Example 114, 8-hydroxy-5-((3-hydroxybenzyl)amino)-4-methylpyrido[2,3-d]pyrimidin-7(8H)-one] | 7.38 |
| O=c1cc(NCc2ccccc2)c2c(O)ncnc2n1O [Example 115, 5-(benzylamino)-4,8-dihydroxypyrido[2,3-d]pyrimidin-7(8H)-one] | 6.82 |
| Cc1ncnc2c1c(NCc1ccccc1NS(C)(=O)=O)cc(=O)n2O [Example 122, N-(2-(((8-hydroxy-4-methyl-7-oxo-7,8-dihydropyrido[2,3-d]pyrimidin-5-yl)amino)methyl)phenyl)methanesulfonamide] | 7.00 |
| Cc1ncnc2c1c(NCc1ccccc1N)cc(=O)n2O [Example 123, 5-((2-aminobenzyl)amino)-8-hydroxy-4-methylpyrido[2,3-d]pyrimidin-7(8H)-one] | 7.11 |
| Cc1ncnc2c1c(NCc1cnc3ccccc3c1)cc(=O)n2O [Example 124, 8-hydroxy-4-methyl-5-(((quinolin-3-yl)methyl)amino)pyrido[2,3-d]pyrimidin-7(8H)-one] | 7.24 |
| Cc1ncnc2c1c(NCc1ccc(N)cc1)cc(=O)n2O [Example 125, 5-((4-aminobenzyl)amino)-8-hydroxy-4-methylpyrido[2,3-d]pyrimidin-7(8H)-one] | 7.20 |
| Cc1ncnc2c1c(NCc1cccc(NS(C)(=O)=O)c1)cc(=O)n2O [Example 126, N-(3-(((8-hydroxy-4-methyl-7-oxo-7,8-dihydropyrido[2,3-d]pyrimidin-5-yl)amino)methyl)phenyl)methanesulfonamide] | 6.85 |
